According to ChEMBL document CHEMBL5154929, “Optimization of the Natural Product Calothrixin A to Discover Novel Dual Topoisomerase I and II Inhibitors with Improved Anticancer Activity” (J Med Chem, 2022):
Calls of active or inactive are those of the source. The rule behind the calls is not given here.

Columns and labels:
[1] = test system: SH-SY5Y; assay: Cytotoxicity against human SH-SY5Y cells expressing low level of topoisomerase I/II measured after 72 hrs by MTT assay; assay type: functional, cell-based
[2] = test system: MDA-MB-231; assay: Cytotoxicity against human MDA-MB-231 cells expressing high level of topoisomerase I/II measured after 72 hrs by MTT assay; assay type: functional, cell-based; conditions: MDA-MB-231, 72 h
[3] = test system: HCT-116; assay: Cytotoxicity against human HCT-116 cells expressing high level of topoisomerase I/II measured after 72 hrs by MTT assay; assay type: functional, cell-based; conditions: HCT-116, 72 h
[4] = test system: MCF7; assay: Cytotoxicity against human MCF7 cells expressing high level of topoisomerase I/II measured after 72 hrs by MTT assay; assay type: functional, cell-based; conditions: MCF7, 72 h
[5] = test system: A-375; assay: Cytotoxicity against human A-375 cells expressing high level of topoisomerase I/II measured after 72 hrs by MTT assay; assay type: functional, cell-based; conditions: A-375, 72 h
[6] = test system: A549; assay: Cytotoxicity against human A549 cells expressing high level of topoisomerase I/II measured after 72 hrs by MTT assay; assay type: functional, cell-based; conditions: A549, 72 h
[7] = Cytotoxicity against human L02 cells measured after 72 hrs by MTT assay; assay type: toxicity, cell-based
[8] = Cytotoxicity against human HEK293T cells measured after 72 hrs by MTT assay; assay type: toxicity, cell-based, HEK-293T
[9] = Aqueous solubility of the compound in saline equilibrating for 24 hrs by HPLC analysis; assay type: physicochemical
[10] = molecular target: T1, DNA topoisomerase 1 (Homo sapiens) (UniProt P11387); assay: Inhibition of DNA topoisomerase I (unknown origin) relaxation activity at 100 uM incubated for 30 mins by chemiDoc system
T1 sequence (whole entry): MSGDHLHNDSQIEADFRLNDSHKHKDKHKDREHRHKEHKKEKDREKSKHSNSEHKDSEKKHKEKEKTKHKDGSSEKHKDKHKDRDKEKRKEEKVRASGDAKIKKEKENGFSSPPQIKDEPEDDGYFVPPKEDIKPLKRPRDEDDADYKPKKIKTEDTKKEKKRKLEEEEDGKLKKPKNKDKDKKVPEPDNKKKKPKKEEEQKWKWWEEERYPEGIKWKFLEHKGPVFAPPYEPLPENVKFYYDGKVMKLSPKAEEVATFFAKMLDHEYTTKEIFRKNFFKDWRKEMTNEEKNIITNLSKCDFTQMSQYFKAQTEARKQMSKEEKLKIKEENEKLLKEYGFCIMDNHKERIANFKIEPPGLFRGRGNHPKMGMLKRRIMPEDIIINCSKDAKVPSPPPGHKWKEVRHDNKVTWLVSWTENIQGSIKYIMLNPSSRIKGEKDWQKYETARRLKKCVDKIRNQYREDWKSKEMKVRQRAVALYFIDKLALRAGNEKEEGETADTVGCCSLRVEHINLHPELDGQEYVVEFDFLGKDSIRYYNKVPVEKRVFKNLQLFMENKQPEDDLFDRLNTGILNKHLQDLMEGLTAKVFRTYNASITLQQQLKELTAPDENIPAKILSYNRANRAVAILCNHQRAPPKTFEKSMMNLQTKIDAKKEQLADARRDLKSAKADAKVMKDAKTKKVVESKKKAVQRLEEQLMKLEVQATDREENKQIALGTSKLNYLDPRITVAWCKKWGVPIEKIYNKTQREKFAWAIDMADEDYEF

[11] = test system: HCT-116; assay: Antiproliferative activity against doxorubicin resistant human HCT-116 cells measured after 72 hrs by MTT assay; assay type: functional, cell-based; conditions: HCT-116, 72 h
[12] = test system: HCT-116; assay: Antiproliferative activity against doxorubicin sensitive human HCT-116 cells measured after 72 hrs by MTT assay; assay type: functional, cell-based; conditions: HCT-116, 72 h
[13] = test system: A-375; assay: Induction of cell cycle arrest in human A-375 cells assessed as accumulation of cells at G1 phase at 80 nM incubated for 24 hrs by PI based flow cytometric analysis (RVB = 52.94%); assay type: functional
[14] = test system: A-375; assay: Induction of cell cycle arrest in human A-375 cells assessed as accumulation of cells at S phase at 80 nM incubated for 24 hrs by PI based flow cytometric analysis (RVB = 26.73%); assay type: functional
[15] = test system: A-375; assay: Induction of cell cycle arrest in human A-375 cells assessed as accumulation of cells at G2 phase at 80 nM incubated for 24 hrs by PI based flow cytometric analysis (RVB = 20.34%); assay type: functional
[16] = molecular target: DNA topoisomerase 2-alpha (Homo sapiens) (UniProt P11388); assay: Inhibition of human DNA topoisomerase II-alpha relaxation activity at 100 uM incubated for 30 mins by chemiDoc system
[17] = molecular target: DNA topoisomerase 2-alpha (Homo sapiens) (UniProt P11388); assay: Poison activity at human topoisomerase II-alpha assessed as stabilization of enzyme-DNA cleavage complex by measuring nicked DNA formation at 100 uM after 60 mins by agarose gel electrophoresis method

Sequence of DNA topoisomerase 2-alpha (Homo sapiens) (P11388 whole entry): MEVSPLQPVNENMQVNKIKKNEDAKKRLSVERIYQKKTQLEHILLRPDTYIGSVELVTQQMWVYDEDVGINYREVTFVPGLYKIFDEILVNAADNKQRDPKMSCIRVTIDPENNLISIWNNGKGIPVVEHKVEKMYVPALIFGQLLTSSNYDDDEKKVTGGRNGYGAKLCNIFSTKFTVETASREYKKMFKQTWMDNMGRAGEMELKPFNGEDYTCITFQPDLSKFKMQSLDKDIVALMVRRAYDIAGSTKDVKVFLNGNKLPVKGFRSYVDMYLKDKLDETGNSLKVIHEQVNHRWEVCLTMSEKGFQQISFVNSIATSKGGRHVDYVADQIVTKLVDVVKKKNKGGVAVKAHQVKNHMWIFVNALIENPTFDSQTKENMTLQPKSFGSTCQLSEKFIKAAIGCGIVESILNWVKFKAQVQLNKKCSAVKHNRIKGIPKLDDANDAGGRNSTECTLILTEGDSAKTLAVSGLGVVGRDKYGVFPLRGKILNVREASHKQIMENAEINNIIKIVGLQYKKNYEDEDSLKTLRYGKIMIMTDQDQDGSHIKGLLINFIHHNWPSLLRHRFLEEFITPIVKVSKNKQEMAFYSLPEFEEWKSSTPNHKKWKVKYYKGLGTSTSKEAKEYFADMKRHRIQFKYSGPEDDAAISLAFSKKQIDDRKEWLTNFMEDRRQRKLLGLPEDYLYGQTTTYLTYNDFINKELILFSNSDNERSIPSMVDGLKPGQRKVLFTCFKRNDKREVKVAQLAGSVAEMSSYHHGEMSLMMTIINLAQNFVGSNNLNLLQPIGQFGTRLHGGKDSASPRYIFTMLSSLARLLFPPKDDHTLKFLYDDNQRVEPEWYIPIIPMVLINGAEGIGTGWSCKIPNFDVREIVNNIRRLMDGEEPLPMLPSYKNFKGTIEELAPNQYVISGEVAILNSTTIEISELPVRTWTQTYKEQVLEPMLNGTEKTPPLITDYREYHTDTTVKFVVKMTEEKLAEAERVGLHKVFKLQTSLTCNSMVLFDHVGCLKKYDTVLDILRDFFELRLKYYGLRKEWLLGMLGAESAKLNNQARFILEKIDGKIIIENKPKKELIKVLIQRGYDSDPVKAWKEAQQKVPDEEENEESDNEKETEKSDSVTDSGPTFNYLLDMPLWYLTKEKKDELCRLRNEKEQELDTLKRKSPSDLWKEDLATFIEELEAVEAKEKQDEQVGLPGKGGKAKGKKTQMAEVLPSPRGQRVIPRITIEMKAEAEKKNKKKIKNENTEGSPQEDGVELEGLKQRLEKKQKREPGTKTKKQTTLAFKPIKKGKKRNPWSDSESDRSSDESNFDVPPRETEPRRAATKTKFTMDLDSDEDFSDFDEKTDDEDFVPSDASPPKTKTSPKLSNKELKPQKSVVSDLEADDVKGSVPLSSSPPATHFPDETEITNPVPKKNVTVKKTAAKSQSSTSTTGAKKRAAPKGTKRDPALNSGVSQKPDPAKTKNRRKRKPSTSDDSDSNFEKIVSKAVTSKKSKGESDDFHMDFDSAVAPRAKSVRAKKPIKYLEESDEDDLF

SMILES	IC50 [1] [nM]	IC50 [2] [nM]	IC50 [3] [nM]	IC50 [4] [nM]	IC50 [5] [nM]	IC50 [6] [nM]	IC50 at 72 h [7] [nM]	IC50 at 72 h [8] [nM]	solubility at 24 h [9] [µg/mL]	inhibition [10]	IC50 [11] [nM]	IC50 [12] [nM]	Activity [13] [%]	Activity [14] [%]	Activity [15] [%]	inhibition [16]	Activity [17]
O=C1c2c[n+]([O-])c3ccccc3c2C(=O)c2c1c1ccccc1n2Cc1cn([C@H]2C[C@H](O)[C@@H](CO)O2)nn1	620	580	120	530	390	350	280	3600	> 5000								
O=C1c2c[n+]([O-])c3ccccc3c2C(=O)c2c1c1ccccc1n2CCCCN1CCNCC1	1240	3310	700	12000	460	540	1380	760		Active							
CN1CCN(CCCCCn2c3c(c4ccccc42)C(=O)c2c[n+]([O-])c4ccccc4c2C3=O)CC1	830	2270	1220	1260	1710	870	1640			Active							
CN(C)CCCCn1c2c(c3ccccc31)C(=O)c1c[n+]([O-])c3ccccc3c1C2=O	250	350	450	220	470	310	300	520		Active							
CC1(C)OC[C@@H](Cn2cc(Cn3c4c(c5ccccc53)C(=O)c3c[n+]([O-])c5ccccc5c3C4=O)nn2)O1	> 1000	> 1000	340	> 1000	450	4700	2900	6020									
COc1cccc2c1C(=O)c1c(O)c3c(c(O)c1C2=O)C[C@@](O)(C(=O)CO)C[C@@H]3O[C@H]1C[C@H](N)[C@H](O)[C@H](C)O1 [DOXORUBICIN]	800	810	340		260						2050	290					
CC[C@@]1(O)C(=O)OCc2c1cc1n(c2=O)Cc2cc3ccccc3nc2-1 [CAMPTOTHECIN]	610	490	600	350	660	370	140	690									
CN(C)CCCn1c2c(c3ccccc31)C(=O)c1c[n+]([O-])c3ccccc3c1C2=O	330	490	350	240	410	310	490	130									
CN1CCN(CCCCCCn2c3c(c4ccccc42)C(=O)c2c[n+]([O-])c4ccccc4c2C3=O)CC1	920	2400	2900	400	630	330	3800	5800									
CN1CCN(CCCn2c3c(c4ccccc42)C(=O)c2c[n+]([O-])c4ccccc4c2C3=O)CC1	560	390	560	220	470	140	230	170									
O=C1c2c[n+]([O-])c3ccccc3c2C(=O)c2[nH]c3ccccc3c21 [CALOTHRIXIN A]	1380	480	620	540	660	320	400	890	< 5	Active	810	650	56.28	33.26	10.46		
O=C1c2c[n+]([O-])c3ccccc3c2C(=O)c2c1c1ccccc1n2CCCN1CCOCC1	590	550	410	450	330	400	550	170									
CC1(C)OC[C@H](Cn2cc(Cn3c4c(c5ccccc53)C(=O)c3c[n+]([O-])c5ccccc5c3C4=O)nn2)O1	820	530	130	530	180	340	470	100									
CN1CCN(CCCCn2c3c(c4ccccc42)C(=O)c2c[n+]([O-])c4ccccc4c2C3=O)CC1	100	110	10	100	30	90	80	100		Active						Active	Active
O=C1c2c[n+]([O-])c3ccccc3c2C(=O)c2c1c1ccccc1n2Cc1cn(C[C@@H](O)CO)nn1	> 500	670	190	600	140	390	490	2030									
O=C1c2c[n+]([O-])c3ccccc3c2C(=O)c2c1c1ccccc1n2Cc1cn(C[C@H](O)CO)nn1	> 1000	1310	400	> 1000	350	1030	1130	8880									
O=C1c2c[n+]([O-])c3ccccc3c2C(=O)c2c1c1ccccc1n2CCCCCN1CCOCC1	300	330	300	260	230	130	330	150									
